# Laboratory results taken from paper PMC12431657, “Discovery and mechanistic insights of dibenzoylmethane as a broad spectrum inhibitor of coronavirus” (PLOS Pathogens, 2025).
# Where “and” joins values, the source holds several entries; their conditions need not be identical. Equal entries are not always repeated. Where two headings read alike, the source gives them in different places.
# Legend:
# HCoV-NL63 = assay: Antiviral activity in vitro, HCoV-NL63; type: cell-based; settings: Human coronavirus NL63, read-out: EC50 HCoV-NL63
# in vivo = settings: Sprague-Dawley, rat, po, 200 mg/kg
# HCoV-229E = assay: Antiviral activity in vitro, qRT-PCR, HCoV-229E in MRC-5 cells; type: cell-based; settings: for HCoV-229E, MRC-5: inhibition at the concentration (Fig2B): replicates
# HCoV-OC43 [1] = type: cell-based
# HCoV-OC43 [2] = assay: Viral entry and internalization assay; type: cell-based; settings: confocal microscopy
# Experimental: (§1) To obtain further insight into the stage at which DBM inhibits the replication of HCoV-OC43 and other HCoVs, RD cells were incubated with compounds, including DBM, remdesivir (RDV), and chloroquine (CQ), at different stages of viral infection. Viral RNA from the supernatant was extracted and quantitatively analysed via qRT-PCR. […] For the viral binding assay, cells were cultured in the presence or absence of DBM at different concentrations for 1 hour before being infected with HCoV-OC43 at an MOI of 50, and then were placed on ice for 2 hours for the viral particles to bind to the membrane of the host cells, followed by washing with PBS. […] In addition to binding to receptors from host cells, the spike proteins of HCoV-OC43 could also trigger membrane fusion when HCoV-OC43 spike plasmid-transfected 293T cells were seeded together with RD cells as target cells, and the addition of DBM had no effect on this process (S5C Fig). […] To determine whether DBM influences viral release, we quantified viral RNA both intracellularly and in the supernatant.
# The cells were seeded at a low density onto 35 mm glass bottom dishes with 10 mm microwells (Cellvis) and incubated overnight at 37 °C. […] The number of intracellular virus particles was quantified with ImageJ software.
# [3] = Metabolic stability in human liver microsomes; type: in vitro ADME; settings: average, read-out: T1/2 of metabolism
# Experimental: Thus, a pharmacokinetic study was performed for DBM in Sprague-Dawley (SD) rats. Following oral administration of menstruum or DBM at 200 mpk, blood samples from the rats were collected at 2 min, 5 min, 15 min, 30 min, 1 h, 2 h, 4 h, 8 h, and 24 h posttreatment. The concentration of DBM in the plasma was determined by liquid chromatography with tandem mass spectrometry (LC-MS/MS). The minimum effective concentration (MEC) line in the graph represents the EC95 value of DBM (Fig 3C). […] To analyse the metabolic stability of DBM, we incubated human and mouse liver microsomes with DBM. The T1/2 of metabolism was an average of 13.92 min in human liver microsomes and 4.84 min in mouse liver microsomes.
# HCoV-OC43 spike protein = assay: Cell-cell fusion assay (HCoV-OC43 spike); type: cell-based; settings: spike-transfected 293T cells with RD cells
# Experimental: as §1, with “Fig). To examine whether DBM inhibits viral internalisation, cells were inoculated with HCoV-OC43 for 1 hour on ice before being treated with either DBM or DMSO, and CQ was included to prevent endosomal acidification.” for “Fig).”, “supernatant. […]” for “supernatant.”
# caspase-6 = caspase-6 (Homo sapiens, UniProt P55212); type: cell-based; settings: STS-treated cells
# caspase-6, sequence (P55212 194-293): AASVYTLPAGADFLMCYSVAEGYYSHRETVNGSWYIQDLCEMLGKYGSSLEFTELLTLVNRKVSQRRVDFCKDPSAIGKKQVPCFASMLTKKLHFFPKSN
# caspase-6, sequence (P55212 24-179): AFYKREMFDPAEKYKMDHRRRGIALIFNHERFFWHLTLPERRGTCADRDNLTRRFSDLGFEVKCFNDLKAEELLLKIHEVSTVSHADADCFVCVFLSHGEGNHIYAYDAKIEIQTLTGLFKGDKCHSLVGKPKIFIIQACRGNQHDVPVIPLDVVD
# IFN signalling = assay: IFNB1 and IFN-stimulated gene expression (qPCR); type: cell-based
# HCoV-OC43 [4] = assay: HCoV-OC43 nucleocapsid protein and caspase-6 in infected cells (Western blot); type: cell-based; settings: cells pretreated with serially diluted compound
# HCoV-OC43 [5] = assay: Cytokine gene expression in brains and spinal cords of infected mice; type: in vivo, BALB/c suckling mice; settings: for CCL2 gene expression / CXCL10 gene expression / IL1B gene expression / IL6 gene expression / TNF gene expression: one value per animal
smiles,measurement,setting,value
"O=C(CC(=O)c1ccccc1)c1ccccc1 [DBM, dibenzoylmethane]",EC50,HCoV-NL63,11.7 µM
same,AUC(0-t),in vivo,34300 ng·h/mL
same,Cmax,in vivo,4760 ng/mL
same,half-life,in vivo,2.91 h
same,EC50,"HCoV-229E; Human coronavirus 229E, MRC5, 24 h, read-out: EC50 HCoV-229E (MRC-5)",0.7 µM
same,"HCoV-229E, MRC-5: inhibition at the concentration (Fig2B)",HCoV-229E; conc. 0.1 (unit not given),0.8 and 1.1 and 0.3
same,"HCoV-229E, MRC-5: inhibition at the concentration (Fig2B)",HCoV-229E; conc. 0.2 (unit not given),1.4 and -2.2 and 0.6
same,"HCoV-229E, MRC-5: inhibition at the concentration (Fig2B)",HCoV-229E; conc. 0.7 (unit not given),17.4 and 32.7 and 56.6
same,"HCoV-229E, MRC-5: inhibition at the concentration (Fig2B)",HCoV-229E; conc. 2.2 (unit not given),69.7 and 42.7 and 53.8
same,"HCoV-229E, MRC-5: inhibition at the concentration (Fig2B)",HCoV-229E; conc. 6.7 (unit not given),86.0 and 92.7 and 89.8
same,"HCoV-229E, MRC-5: inhibition at the concentration (Fig2B)",HCoV-229E; conc. 20.0 (unit not given),94.3 and 95.3 and 95.9
same,antiviral activity in CASP6 knockout cell pools,HCoV-OC43 [1]; RD cells,decreased
same,Viral inhibition (Fig5K),"HCoV-OC43 [1]; concentration 2, RD-CASP6 KO cells",35.0 and 37.4 and 35.2
same,Viral inhibition (Fig5K),"HCoV-OC43 [1]; concentration 2, RD-Scramble cells",87.9 and 90.6 and 92.3
same,Viral inhibition (Fig5K),"HCoV-OC43 [1]; concentration 20, RD-Scramble cells",81.0 and 81.9 and 83.3
same,viral internalisation,HCoV-OC43 [2],did not interfere
same,half-life,[3],0.232 h
same,spike-triggered membrane fusion,HCoV-OC43 spike protein,had no effect
same,levels of cleaved HCoV-OC43 and SARS-CoV-2 nucleocapsid proteins,caspase-6,significantly reduces
same,IFITM3 expression,IFN signalling,1.19 and 1.66 and 1.36
same,IFNB1 expression,IFN signalling,6.09 and 4.34 and 4.64
same,OAS1 expression,IFN signalling,1.74 and 2.26 and 1.65
same,"suppression of IFN signalling by caspase-6 and nucleocapsid proteins (IFNB1, ISGs)",IFN signalling,reversed the suppression of IFN signalling
same,IFN signalling in HCoV-OC43-infected cells,IFN signalling; IFNB1 and ISG mRNA,enhanced IFN signalling
same,"virus replication (nucleocapsid protein, Western blot)",HCoV-OC43 [4],inhibited virus replication
same,CCL2 gene expression,"HCoV-OC43 [5]; BRAIN, DBM 100 mpk",1.51 and 1.54 and 1.00 and 1.20 and 1.62 and 1.74
same,CXCL10 gene expression,"HCoV-OC43 [5]; BRAIN, DBM 100 mpk",2.90 and 3.33 (2×) and 2.35 and 2.81 and 3.27
same,IL1B gene expression,"HCoV-OC43 [5]; BRAIN, DBM 100 mpk",1.23 and 1.14 (2×) and 0.87 and 0.89 and 1.66
same,IL6 gene expression,"HCoV-OC43 [5]; BRAIN, DBM 100 mpk",0.95 and 1.15 and 0.67 and 0.94 and 1.52 and 1.33
same,TNF gene expression,"HCoV-OC43 [5]; BRAIN, DBM 100 mpk",1.36 (2×) and 0.92 and 0.88 and 1.72 and 1.28
same,CCL2 gene expression,"HCoV-OC43 [5]; BRAIN, DBM 200 mpk",1.46 and -0.88 and 0.68 and 1.08 and 1.88
same,CXCL10 gene expression,"HCoV-OC43 [5]; BRAIN, DBM 200 mpk",3.15 and -0.32 and 2.05 and 2.44 and 3.30
same,IL1B gene expression,"HCoV-OC43 [5]; BRAIN, DBM 200 mpk",1.27 and -1.00 and 0.43 and 0.66 and 1.46
same,IL6 gene expression,"HCoV-OC43 [5]; BRAIN, DBM 200 mpk",1.26 and -0.71 and 0.30 and 0.34 and 1.23
same,TNF gene expression,"HCoV-OC43 [5]; BRAIN, DBM 200 mpk",1.14 and -1.10 and 0.49 and 0.84 and 1.31
same,CCL2 gene expression,"HCoV-OC43 [5]; BRAIN, DBM 500 mpk",1.19 and 0.29 and 0.89 and 1.43
same,CXCL10 gene expression,"HCoV-OC43 [5]; BRAIN, DBM 500 mpk",2.39 and 1.30 and 1.07 and 2.91
same,IL1B gene expression,"HCoV-OC43 [5]; BRAIN, DBM 500 mpk",1.46 and 0.54 and 0.85 and 1.71
same,IL6 gene expression,"HCoV-OC43 [5]; BRAIN, DBM 500 mpk",0.93 and 0.71 and 0.92 and 1.17
same,TNF gene expression,"HCoV-OC43 [5]; BRAIN, DBM 500 mpk",1.05 and 0.22 and 0.74 and 1.31
same,inflammation (cytokine gene expression) in the brain and spinal cord,"HCoV-OC43 [5]; CCL2, CXCL10, IL-1β, IL-6, TNF-α, 5 dpi",dramatically reduced inflammation
same,CCL2 gene expression,"HCoV-OC43 [5]; SPINAL CORD, DBM 100 mpk",0.10 and -0.50 and -0.53 and -0.21 and -0.06 and -0.89
same,CXCL10 gene expression,"HCoV-OC43 [5]; SPINAL CORD, DBM 100 mpk",2.03 and 1.48 and 0.34 and 0.55 and 1.02 and 0.66
same,IL1B gene expression,"HCoV-OC43 [5]; SPINAL CORD, DBM 100 mpk",-0.76 and -1.28 and -0.98 and -0.97 and -0.64 and -1.78
same,IL6 gene expression,"HCoV-OC43 [5]; SPINAL CORD, DBM 100 mpk",1.39 and -0.72 and 0.41 and 1.02 and 0.87 and 0.47
same,TNF gene expression,"HCoV-OC43 [5]; SPINAL CORD, DBM 100 mpk",0.47 and -0.10 and -0.18 and 0.26 and 0.80 and -0.63
same,CCL2 gene expression,"HCoV-OC43 [5]; SPINAL CORD, DBM 200 mpk",-0.12 and -1.42 and -0.38 and -0.65 and 0.03
same,CXCL10 gene expression,"HCoV-OC43 [5]; SPINAL CORD, DBM 200 mpk",1.47 and -1.58 and 0.55 and 0.23 and 1.42
same,IL1B gene expression,"HCoV-OC43 [5]; SPINAL CORD, DBM 200 mpk",-0.83 and -1.94 and -0.93 and -0.47 and -0.26
same,IL6 gene expression,"HCoV-OC43 [5]; SPINAL CORD, DBM 200 mpk",0.59 and -0.46 and 0.79 and 0.02 and 0.49
same,TNF gene expression,"HCoV-OC43 [5]; SPINAL CORD, DBM 200 mpk",-0.40 and -0.33 and -1.12 and -0.23 and 0.63
same,CCL2 gene expression,"HCoV-OC43 [5]; SPINAL CORD, DBM 500 mpk",2.46 and 1.15 and -0.63 and 0.95
same,CXCL10 gene expression,"HCoV-OC43 [5]; SPINAL CORD, DBM 500 mpk",3.10 and 2.34 and 0.15 and 1.92
same,IL1B gene expression,"HCoV-OC43 [5]; SPINAL CORD, DBM 500 mpk",2.44 and 0.22 and -1.51 and 0.43
same,IL6 gene expression,"HCoV-OC43 [5]; SPINAL CORD, DBM 500 mpk",3.07 and 2.18 and -0.81 and 1.64
same,TNF gene expression,"HCoV-OC43 [5]; SPINAL CORD, DBM 500 mpk",3.77 and 1.80 and -0.57 and 1.44
